Test results from patent publication US10604554B2, “Double-acylated GLP-1 derivatives” (Novo Nordisk A/S, priority 2012, dated 2020).

Experiments:
human GLP-1 receptor = target: T1, human GLP-1 receptor (Homo sapiens, UniProt P43220); experiment: GLP-1 receptor binding (SPA, displacement of 125I-GLP-1); conditions: for IC50: 0.001% HSA (low albumin), read-out: Receptor binding affinity IC50 (low HSA); for IC50 (high HSA): Receptor binding affinity IC50 (high HSA), 2.0% HSA (high albumin), heading: Receptor binding affinity IC50
T1 construct: expressed in transfected cells; host or cells: BHK cells, clone FCW467-12A/KZ10-1 (parent line BHKTS13), further transfected with CRE luciferase
T1 sequence (P43220 24-463): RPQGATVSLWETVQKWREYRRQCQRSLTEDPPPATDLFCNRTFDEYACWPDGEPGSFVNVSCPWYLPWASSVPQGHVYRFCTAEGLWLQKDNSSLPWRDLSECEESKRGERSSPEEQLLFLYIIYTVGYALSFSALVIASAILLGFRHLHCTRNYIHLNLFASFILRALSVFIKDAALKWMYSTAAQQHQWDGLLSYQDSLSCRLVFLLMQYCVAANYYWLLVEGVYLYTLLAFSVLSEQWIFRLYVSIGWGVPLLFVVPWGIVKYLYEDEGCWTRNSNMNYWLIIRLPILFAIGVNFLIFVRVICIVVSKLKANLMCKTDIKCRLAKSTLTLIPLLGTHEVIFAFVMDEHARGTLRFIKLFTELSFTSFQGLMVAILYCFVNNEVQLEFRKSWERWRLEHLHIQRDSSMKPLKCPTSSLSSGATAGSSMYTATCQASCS
In short: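 Tracer [125I]-GLP-1(7-36)NH2 at 0.06 nM final competed on hamster stably transfected cell membranes captured by WGA SPA beads; 120 min, 30 °C, scintillation count.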

in vivo [1] = conditions: male, Sprague Dawley, rat, iv
in vivo [2] = conditions: male, Göttingen, minipig, iv

IC50 (human GLP-1 receptor) [nM]	IC50 (high HSA) (human GLP-1 receptor) [nM]	half-life (in vivo [1]) [h]	half-life (in vivo [2]) [h]	SMILES
0.33	222	28	109	CC[C@H](C)[C@H](NC(=O)[C@H](Cc1ccccc1)NC(=O)[C@H](CCC(=O)O)NC(=O)[C@H](CCCCNC(=O)[C@@H](N)CCCCNC(=O)[C@@H](N)CCCCNC(=O)CC[C@H](NC(=O)CC[C@H](NC(=O)CCCCCCCCCCCCCCC(=O)O)C(=O)O)C(=O)O)NC(=O)[C@H](C)NC(=O)[C@H](C)NC(=O)[C@H](CCC(N)=O)NC(=O)CNC(=O)[C@H](CCC(=O)O)NC(=O)[C@H](CC(C)C)NC(=O)[C@H](Cc1ccc(O)cc1)NC(=O)[C@H](CO)NC(=O)[C@H](CO)NC(=O)[C@@H](NC(=O)[C@H](CC(=O)O)NC(=O)[C@H](CO)NC(=O)[C@@H](NC(=O)[C@H](Cc1ccccc1)NC(=O)[C@@H](NC(=O)CNC(=O)[C@H](CCC(=O)O)NC(=O)C(C)(C)NC(=O)[C@@H](N)Cc1c[nH]cn1)[C@@H](C)O)[C@@H](C)O)C(C)C)C(=O)N[C@@H](C)C(=O)N[C@@H](Cc1c[nH]c2ccccc12)C(=O)N[C@@H](CC(C)C)C(=O)N[C@H](C(=O)N[C@@H](CCCNC(=N)N)C(=O)NCC(=O)N[C@@H](CCCNC(=N)N)C(=O)N[C@@H](CCCCNC(=O)[C@@H](N)CCCCNC(=O)[C@@H](N)CCCCNC(=O)CC[C@H](NC(=O)CC[C@H](NC(=O)CCCCCCCCCCCCCCC(=O)O)C(=O)O)C(=O)O)C(=O)O)C(C)C [Example 12, N^ε26-[(2S)-2-amino-6-[[(2S)-2-amino-6-[[(4S)-4-carboxy-4-[[(4S)-4-carboxy-4-(15-carboxypentadecanoylamino)butanoyl]amino]butanoyl]amino]hexanoyl]amino]hexanoyl], N^ε37-[(2S)-2-amino-6-[[(2S)-2-amino-6-[[(4S)-4-carboxy-4-[[(4S)-4-carboxy-4-(15-carboxypentadecanoylamino)butanoyl]amino]butanoyl]amino]hexanoyl]amino]hexanoyl]-[Aib^8,Arg^34, Lys^37]-GLP-1-(7-37)-peptide]
0.25	689	21	–	CC[C@H](C)[C@H](NC(=O)[C@H](Cc1ccccc1)NC(=O)[C@H](CCC(=O)O)NC(=O)[C@H](CCCCNC(=O)[C@@H](N)CCCCNC(=O)[C@@H](N)CCCCNC(=O)CC[C@H](NC(=O)CCCCCCCCCCCCCCCCC(=O)O)C(=O)O)NC(=O)[C@H](C)NC(=O)[C@H](C)NC(=O)[C@H](CCC(N)=O)NC(=O)CNC(=O)[C@H](CCC(=O)O)NC(=O)[C@H](CC(C)C)NC(=O)[C@H](Cc1ccc(O)cc1)NC(=O)[C@H](CO)NC(=O)[C@H](CO)NC(=O)[C@@H](NC(=O)[C@H](CC(=O)O)NC(=O)[C@H](CO)NC(=O)[C@@H](NC(=O)[C@H](Cc1ccccc1)NC(=O)[C@@H](NC(=O)CNC(=O)[C@H](CCC(=O)O)NC(=O)C(C)(C)NC(=O)[C@@H](N)Cc1c[nH]cn1)[C@@H](C)O)[C@@H](C)O)C(C)C)C(=O)N[C@@H](C)C(=O)N[C@@H](Cc1c[nH]c2ccccc12)C(=O)N[C@@H](CC(C)C)C(=O)N[C@H](C(=O)N[C@@H](CCCNC(=N)N)C(=O)NCC(=O)N[C@@H](CCCNC(=N)N)C(=O)N[C@@H](CCCCNC(=O)[C@@H](N)CCCCNC(=O)[C@@H](N)CCCCNC(=O)CC[C@H](NC(=O)CCCCCCCCCCCCCCCCC(=O)O)C(=O)O)C(=O)O)C(C)C [Example 27, N^ε26-[(2S)-2-amino-6-[[(2S)-2-amino-6-[[(4S)-4-carboxy-4-(17-carboxyheptadecanoylamino)butanoyl]amino]hexanoyl]amino]hexanoyl], N^ε37-[(2S)-2-amino-6-[[(2S)-2-amino-6-[[(4S)-4-carboxy-4-(17-carboxyheptadecanoylamino)butanoyl]amino]hexanoyl]amino]hexanoyl]-[Aib^8,Arg^34,Lys^37]-GLP-1-(7-37)-peptide]
